Experiments:
Plasmodium falciparum [1] = assay: Antimalarial activity against chloroquine-sensitive Plasmodium falciparum 3D7 assessed as incorporation of [3H]hypoxanthine after 48 hr microdilution method; type: functional, organism-based
Plasmodium falciparum [2] = assay: Antimalarial activity against chloroquine-resistant Plasmodium falciparum K1 assessed as incorporation of [3H]hypoxanthine after 48 hr microdilution method; type: functional, organism-based
Heme = assay: Inhibition of heme polymerization in Plasmodium falciparum after 15 min by liquid scintillation counting analysis in presence of [14C]-hemin chloride

Q: Which results are given for `COc1ccc2nc3cc(Cl)ccc3c(Nc3cc(CN4CCCC4)c(O)c(CN4CCCC4)c3)c2n1` [PYRONARIDINE]?
A: IC50 (Plasmodium falciparum [1]): 5.7 nM; IC50 (Plasmodium falciparum [2]): 9.1 nM; IC50 (Heme): 64000 nM

Q: With `CCN(CC)CCCC(C)Nc1c2ccc(Cl)cc2nc2ccc(OC)cc12` (stereo unspecified) [QUINACRINE] as the compound, how does the IC50 (Plasmodium falciparum [1]) read?
A: The IC50 was 13 nM.

Q: What about the IC50 (Heme) of the same compound?
A: Its IC50 is 41000 nM.

Q: Which results are given for `C=C[C@H]1CN2CC[C@H]1C[C@@H]2[C@@H](O)c1ccnc2ccc(OC)cc12` [QUINIDINE]?
A: IC50 (Plasmodium falciparum [1]): 21 nM; IC50 (Heme): 24000 nM

Q: Which results are given for `CCN(CC)CCCC(C)Nc1ccncc1` (stereo unspecified)?
A: IC50 (Plasmodium falciparum [1]): 12000 nM; IC50 (Plasmodium falciparum [2]): 15000 nM; IC50 (Heme): 92000 nM

Q: `Oc1ccc(Nc2ccnc3cc(Cl)ccc23)cc1CN1CCCC1` [AMOPYROQUINE] was tested. Which IC50 (Plasmodium falciparum [1]) did it give?
A: The IC50 was 5.3 nM.

Q: What about the IC50 (Plasmodium falciparum [2]) of the same compound?
A: The IC50 was 12 nM.

Q: And the IC50 (Heme)?
A: Its IC50 is 30000 nM.

Q: How did the IC50 (Plasmodium falciparum [1]) turn out when `O[C@@H](c1cc(C(F)(F)F)nc2c(C(F)(F)F)cccc12)[C@H]1CCCCN1` (relative stereo) [(S,R)-MEFLOQUINE] was run?
A: The IC50 was 23 nM.

Q: And the IC50 (Plasmodium falciparum [2])?
A: The IC50 was 9.4 nM.

Q: And the IC50 (Heme)?
A: Its IC50 is 47000 nM.

Q: What does the source list for `CC(CCCN)Nc1ccnc2cc(Cl)ccc12` (stereo unspecified) [BIDESETHYL CHLOROQUINE]?
A: IC50 (Plasmodium falciparum [1]): 55 nM; IC50 (Heme): 58000 nM

Q: `CCCCN(CCCC)CCC(O)c1cc2c(Cl)cc(Cl)cc2c2cc(C(F)(F)F)ccc12` (stereo unspecified) [HALOFANTRINE] was tested. Which IC50 (Plasmodium falciparum [1]) did it give?
A: Its IC50 is 5.8 nM.

Q: What about the IC50 (Plasmodium falciparum [2]) of the same compound?
A: The IC50 was 2.8 nM.

Q: What about the IC50 (Heme) of the same compound?
A: The IC50 was 180000 nM.

Q: `CCNCCCC(C)Nc1ccnc2cc(Cl)ccc12` (stereo unspecified) [DESETHYLCHLOROQUINE] was tested. Which IC50 (Plasmodium falciparum [1]) did it give?
A: The IC50 was 19 nM.

Q: And the IC50 (Plasmodium falciparum [2])?
A: Its IC50 is 720 nM.

Q: What about the IC50 (Heme) of the same compound?
A: Its IC50 is 45000 nM.

Q: How did the IC50 (Plasmodium falciparum [1]) turn out when `Oc1ccc(Nc2ccnc3cc(Cl)ccc23)cc1` was run?
A: Its IC50 is 1400 nM.

Q: What about the IC50 (Heme) of the same compound?
A: Its IC50 is 19000 nM.

Q: `CCN(CC)CCCC(C)Nc1ccnc2cc(Cl)ccc12` (stereo unspecified) [CHLOROQUINE] was tested. Which IC50 (Heme) did it give?
A: Its IC50 is 24000 nM.

Q: `C=C[C@H]1CN2CC[C@H]1C[C@H]2[C@H](O)c1ccnc2ccccc12` [CINCHONIDINE] was tested. Which IC50 (Plasmodium falciparum [1]) did it give?
A: The IC50 was 40 nM.

Q: What about the IC50 (Plasmodium falciparum [2]) of the same compound?
A: Its IC50 is 91 nM.

Q: What about the IC50 (Heme) of the same compound?
A: Its IC50 is 27000 nM.

Q: How did the IC50 (Plasmodium falciparum [1]) turn out when `CC(CCCN1CCCC1)Nc1ccnc2cc(Cl)ccc12` (stereo unspecified) [Chloroquine-pyrolidinyl] was run?
A: The IC50 was 19 nM.

Q: What about the IC50 (Heme) of the same compound?
A: The IC50 was 44000 nM.

Q: `C=C[C@H]1CN2CC[C@H]1C[C@H]2[C@H](O)c1ccnc2ccc(OC)cc12` [QUININE] was tested. Which IC50 (Plasmodium falciparum [1]) did it give?
A: The IC50 was 34 nM.

Q: What about the IC50 (Heme) of the same compound?
A: Its IC50 is 65000 nM.

Q: Which results are given for `CCN(CC)Cc1cc(Nc2ccnc3cc(Cl)ccc23)ccc1O`?
A: IC50 (Plasmodium falciparum [1]): 7.8 nM; IC50 (Plasmodium falciparum [2]): 18 nM; IC50 (Heme): 15000 nM

Q: With `CCN(CC)Cc1cc(Nc2ccnc3cc(Cl)ccc23)cc(-c2ccc(Cl)cc2)c1O` [TEBAQUINE] as the compound, how does the IC50 (Plasmodium falciparum [1]) read?
A: Its IC50 is 9.5 nM.

Q: And the IC50 (Plasmodium falciparum [2])?
A: Its IC50 is 13 nM.

Q: What about the IC50 (Heme) of the same compound?
A: The IC50 was 53000 nM.

Q: What does the source list for `NCc1cc(Nc2ccnc3cc(Cl)ccc23)ccc1O` [BIDESETHYL AMODIAQUINE]?
A: IC50 (Plasmodium falciparum [1]): 21 nM; IC50 (Plasmodium falciparum [2]): 170 nM; IC50 (Heme): 73000 nM

Q: Which IC50 (Plasmodium falciparum [1]) does the source give for `C=C[C@H]1CN2CC[C@H]1C[C@@H]2[C@@H](O)c1ccnc2ccccc12` [CINCHONINE] here?
A: Its IC50 is 21 nM.

Q: And the IC50 (Plasmodium falciparum [2])?
A: The IC50 was 56 nM.

Q: What about the IC50 (Heme) of the same compound?
A: The IC50 was 23000 nM.

Q: `CCNCc1cc(Nc2ccnc3cc(Cl)ccc23)ccc1O` [DESETHYL AMODIAQUINE] was tested. Which IC50 (Plasmodium falciparum [1]) did it give?
A: Its IC50 is 6.9 nM.

Q: And the IC50 (Plasmodium falciparum [2])?
A: The IC50 was 39 nM.

Q: What about the IC50 (Heme) of the same compound?
A: The IC50 was 43000 nM.

Q: With `CCN(CC)Cc1cc(Nc2ccnc3cc(Cl)ccc23)cc(-c2ccc(Cl)cc2)c1` [DEHYDROXY TEBAQUINE] as the compound, how does the IC50 (Plasmodium falciparum [1]) read?
A: Its IC50 is 42 nM.

Q: What about the IC50 (Heme) of the same compound?
A: Its IC50 is 51000 nM.

Q: Which results are given for `CC(C)(C)NCc1cc(Nc2ccnc3cc(Cl)ccc23)ccc1O` [N-TERT-BUTYL-AMODIAQUINE]?
A: IC50 (Plasmodium falciparum [1]): 5.5 nM; IC50 (Plasmodium falciparum [2]): 9.1 nM; IC50 (Heme): 32000 nM

Q: What does the source list for `CCN(CC)Cc1cc(Nc2ccncc2)ccc1O`?
A: IC50 (Plasmodium falciparum [1]): 680 nM; IC50 (Heme): 72000 nM

Reference: ChEMBL document CHEMBL3044897, “Pharmacophore-based predictive model generation for potent antimalarials targeting haem detoxification pathway” (Med Chem Res, 2007)
